Experimental findings from patent US11524041B2, “Ginkgo diterpene lactone composition” (Jiangsu Kanion Pharmaceutical Co., Ltd., priority 2017, dated 2022) are described below.

Where a name gives a salt, the structure may show the parent alone.

Common to all, as to format: in vivo
Assay [1] concerns level of oxidative stress of rats. The experiment in a line: Detection of oxidative stress in serum of rats given alcohol. Particulars: rat serum, alcohol 6 g/kg daily, compositions 3 mg/kg iv, edaravone 6.25 mg/kg iv, daily for 5 weeks, n = 10. Here is the method: 2.1 Modeling and administration: Healthy male rats were selected and randomly divided into normal group, model group, positive drug group and Ginkgo diterpene lactone composition groups A-K, With the exception of the normal group, the other groups were orally administrated with alcohol with a daily dose of 6 g/kg. Rats in the positive drug group were administrated with edaravone injection (iv) in a daily dose of 6.25 mg/kg, and rats in the Ginkgo diterpene lactone composition groups A-K were administrated in a daily dose of 3 mg/kg (iv), they were continuously administrated or given alcohol for 5 weeks.
2.2 Detection of oxidative stress: After the administration, rats in each group were anesthetized with 10% chloral hydrate, abdominal aortic blood was collected and then subjected to heparin anticoagulation to separate serum; changes of MDA, SOD, GSH and TAC levels in the serum were detected according to the instructions of the kits, and the protein content of each sample was measured using the BCA protein test kit.
2.3 Statistical analysis: The data are expressed as (x±s). All data are analyzed by one-way ANOVA using SPSS 19.0 software to determine the significance of the difference.

Another assay concerns mice. As to the kind of experiment: Forced swimming experiment for mice. Particulars: compositions 9 mg/kg ig, imipramine 50 mg/kg oral, once a day for 5 days, difference of immobility times, X ± S. Here is the method:
2.2 Forced swimming experiment for mice: Male mice weighing 20-24 g were selected, grouped and administered in the same manner as in Section 2.1. The experiment was started 30 minutes after the fifth administration. The mice were placed in a graduated cylinder (20 cm in height and 14 cm in diameter) with 30° C. water in the depth of 10 cm. The difference between the two immobility times of the mice themselves were calculated and then statistical analysis was conducted after Ig (X++45) conversion.
(§1) 2.4 Statistical analysis: The data are expressed as (x±s). All data are analyzed by one-way ANOVA using SPSS 19.0 software to determine the significance of the difference.

The subject of a further assay is rats. The experiment in a line: Electric shock avoidance experiment for rats (learned helplessness electric shock model). Particulars: compositions 6.26 mg/kg ig, imipramine 33 mg/kg oral, once a day for 35 days, results of the fifth training, X ± S.
From the text: 2.3 Electric shock avoidance experiment for rats: The anti-depression effect of the drug was observed using a learned helplessness electric shock model. Healthy male rats weighing 180-220 g were selected and randomly divided into normal group, model group, positive drug group and Ginkgo diterpene lactone composition groups A-K, with 10 rats in each group. The rats in the […] were orally administered with the same normal saline every day; the rats in the positive drug group were orally administered with imipramine tablet in a daily dose of 33 mg/kg, and the rats in the Ginkgo diterpene lactone composition groups A-K were administered in a daily dose of 6.26 mg/kg (ig), once a day for 35 consecutive days. The experiment was started 30 minutes after the 30th administration. On the first day of the experiment, “helpless induction” was performed. […] The training was conducted for 5 days, and the number of successful escapes of each rat during training was recorded every day, and the results of the fifth training were counted.
as §1

Where [2] appears, read: n = 10, listed as imipramine, hydrochloride.

For `CC1=NN(c2ccccc2)C(=O)C1` [Edaravone, edaravone], in assay [1], the MDA is given as 59.6 ± 20.6 nmol/mg, the SOD is reported as 769.5 ± 55.5 U/mg and the TAC is 243.6 ± 0.9 U/mg. Moreover, in assay [1] (listed as edaravone injection), the GSH entry is listed as “significantly corrected”, the MDA result was “significantly corrected”, the SOD result is given as “significantly corrected” and the TAC entry was “significantly corrected”.

With `CN(C)CCCN1c2ccccc2CCc2ccccc21` [Imipramine, imipramine hydrochloride], the “Swimming interval (X + 45) conversion” value in the assay on mice (n = 10, hydrochloride) is 4.03 ± 0.05^; in the assay on mice (setting [2]), “significantly prolonged”. For the same molecule, the “Accumulative number of successful escapes” value in the assay on rats (n = 10, hydrochloride) is recorded as 24.5 ± 1.5; with rats (setting [2]), “significantly increased”.
